Assay results reported in ChEMBL document CHEMBL5247649, “Comparative Efficacy and Selectivity of Pharmacological Inhibitors of DYRK and CLK Protein Kinases” (J Med Chem, 2023).
pIC50, pKd: −log10 of the molar value.

Tests used:
[1] = molecular target: Casein kinase I isoform epsilon (Homo sapiens, UniProt P49674); assay: biochemical; format: cell-based, Sf9
[2] = molecular target: Dual specificity protein kinase CLK3 (Homo sapiens, UniProt P49761); assay: biochemical; format: cell-based, Sf9
[3] = molecular target: T1, Dual specificity tyrosine-phosphorylation-regulated kinase 4 (Homo sapiens, UniProt Q9NR20); assay: biochemical; format: cell-based, Sf9
T1 sequence (Q9NR20 whole entry): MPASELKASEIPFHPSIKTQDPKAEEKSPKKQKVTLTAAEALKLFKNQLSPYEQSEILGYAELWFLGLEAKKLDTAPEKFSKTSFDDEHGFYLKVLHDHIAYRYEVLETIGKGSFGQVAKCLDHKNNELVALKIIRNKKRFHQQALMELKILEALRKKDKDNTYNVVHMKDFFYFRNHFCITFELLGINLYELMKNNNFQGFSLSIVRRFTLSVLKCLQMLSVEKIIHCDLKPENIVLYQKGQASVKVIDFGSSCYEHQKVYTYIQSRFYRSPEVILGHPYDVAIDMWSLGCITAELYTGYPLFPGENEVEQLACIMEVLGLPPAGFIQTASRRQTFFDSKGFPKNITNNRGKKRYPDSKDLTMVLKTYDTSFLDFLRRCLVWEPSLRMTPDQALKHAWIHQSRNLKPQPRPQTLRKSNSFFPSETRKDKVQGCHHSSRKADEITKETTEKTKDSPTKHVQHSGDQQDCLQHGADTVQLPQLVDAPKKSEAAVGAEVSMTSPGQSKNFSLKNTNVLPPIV

[4] = molecular target: T2, Glycogen synthase kinase-3 beta (Homo sapiens, UniProt P49841); assay: biochemical; format: cell-based, Sf9
[5] = molecular target: T2, Glycogen synthase kinase-3 beta
in vitro = settings: mouse, ht-22
[6] = molecular target: Dual specificity protein kinase CLK4 (Homo sapiens, UniProt Q9HAZ1); assay: biochemical
[7] = molecular target: T3, Dual specificity protein kinase CLK1 (Homo sapiens, UniProt P49759); assay: biochemical; format: cell-based, Sf9
[8] = molecular target: T4, Dual specificity tyrosine-phosphorylation-regulated kinase 2 (Homo sapiens, UniProt Q92630); assay: biochemical; format: cell-based, Sf9
T4 sequence (Q92630 whole entry): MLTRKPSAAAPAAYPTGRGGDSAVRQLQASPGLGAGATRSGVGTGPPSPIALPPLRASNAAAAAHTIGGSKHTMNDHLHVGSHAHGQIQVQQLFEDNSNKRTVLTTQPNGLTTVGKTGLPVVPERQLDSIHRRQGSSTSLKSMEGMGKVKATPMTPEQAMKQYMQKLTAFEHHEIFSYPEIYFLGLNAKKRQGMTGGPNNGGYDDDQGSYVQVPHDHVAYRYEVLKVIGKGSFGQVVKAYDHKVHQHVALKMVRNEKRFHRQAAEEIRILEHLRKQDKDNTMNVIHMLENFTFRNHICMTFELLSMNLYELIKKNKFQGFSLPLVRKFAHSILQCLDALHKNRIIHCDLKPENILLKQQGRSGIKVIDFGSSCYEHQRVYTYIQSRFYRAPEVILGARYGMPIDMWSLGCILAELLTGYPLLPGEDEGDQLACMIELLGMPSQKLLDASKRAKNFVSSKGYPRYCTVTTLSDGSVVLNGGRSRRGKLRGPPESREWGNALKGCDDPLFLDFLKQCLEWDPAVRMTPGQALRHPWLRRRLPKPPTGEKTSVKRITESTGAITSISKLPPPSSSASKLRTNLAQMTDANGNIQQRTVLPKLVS

[9] = molecular target: T5, Dual specificity tyrosine-phosphorylation-regulated kinase 3 (Homo sapiens, UniProt O43781); assay: biochemical; format: cell-based, Sf9
T5 sequence (O43781 whole entry): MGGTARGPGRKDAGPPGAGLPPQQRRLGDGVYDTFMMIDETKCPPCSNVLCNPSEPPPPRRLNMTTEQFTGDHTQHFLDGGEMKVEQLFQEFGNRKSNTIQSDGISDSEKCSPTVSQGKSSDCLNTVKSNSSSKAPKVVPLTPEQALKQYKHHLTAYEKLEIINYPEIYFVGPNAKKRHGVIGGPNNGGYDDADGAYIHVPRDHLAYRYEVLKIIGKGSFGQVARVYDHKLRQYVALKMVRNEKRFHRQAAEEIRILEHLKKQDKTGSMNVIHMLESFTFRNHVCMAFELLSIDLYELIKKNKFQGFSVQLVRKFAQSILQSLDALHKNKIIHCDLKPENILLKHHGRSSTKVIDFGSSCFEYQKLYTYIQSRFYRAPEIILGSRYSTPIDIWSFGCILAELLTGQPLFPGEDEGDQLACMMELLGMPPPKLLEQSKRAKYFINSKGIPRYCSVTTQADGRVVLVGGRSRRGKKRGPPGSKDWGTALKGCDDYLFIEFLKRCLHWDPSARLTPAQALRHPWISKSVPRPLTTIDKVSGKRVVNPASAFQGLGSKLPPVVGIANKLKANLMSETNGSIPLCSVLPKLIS

[10] = molecular target: T3, Dual specificity protein kinase CLK1; assay: biochemical; format: cell-based, Sf9; settings: read-out: IC50
[11] = molecular target: T3, Dual specificity protein kinase CLK1
[12] = molecular target: Dual specificity protein kinase CLK2 (Homo sapiens, UniProt P49760); assay: biochemical
[13] = molecular target: Cyclin-dependent kinase 5/CDK5 activator 1 (Homo sapiens, UniProt Q00535); assay: biochemical; format: cell-based, Sf9
Sequence of Cyclin-dependent kinase 5/CDK5 activator 1 (Q00535 whole entry): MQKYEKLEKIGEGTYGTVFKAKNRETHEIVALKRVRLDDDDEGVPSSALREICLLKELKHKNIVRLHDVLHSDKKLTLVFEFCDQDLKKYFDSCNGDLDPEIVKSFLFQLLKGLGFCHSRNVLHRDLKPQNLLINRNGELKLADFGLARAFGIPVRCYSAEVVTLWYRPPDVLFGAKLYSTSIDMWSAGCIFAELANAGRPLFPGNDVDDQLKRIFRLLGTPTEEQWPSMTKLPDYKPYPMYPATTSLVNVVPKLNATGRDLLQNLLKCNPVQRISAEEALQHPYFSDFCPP
Sequence of Cyclin-dependent kinase 5/CDK5 activator 1 (Q15078 whole entry, further chain): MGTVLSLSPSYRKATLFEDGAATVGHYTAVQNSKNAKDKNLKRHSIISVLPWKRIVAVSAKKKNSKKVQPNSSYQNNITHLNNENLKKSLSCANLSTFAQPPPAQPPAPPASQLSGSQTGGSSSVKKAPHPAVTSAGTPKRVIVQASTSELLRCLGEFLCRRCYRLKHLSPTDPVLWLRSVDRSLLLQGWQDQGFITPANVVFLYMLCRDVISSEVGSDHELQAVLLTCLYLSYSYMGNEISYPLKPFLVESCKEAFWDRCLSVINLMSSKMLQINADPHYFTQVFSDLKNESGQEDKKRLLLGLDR

Sequence of Dual specificity protein kinase CLK4 (Q9HAZ1 whole entry): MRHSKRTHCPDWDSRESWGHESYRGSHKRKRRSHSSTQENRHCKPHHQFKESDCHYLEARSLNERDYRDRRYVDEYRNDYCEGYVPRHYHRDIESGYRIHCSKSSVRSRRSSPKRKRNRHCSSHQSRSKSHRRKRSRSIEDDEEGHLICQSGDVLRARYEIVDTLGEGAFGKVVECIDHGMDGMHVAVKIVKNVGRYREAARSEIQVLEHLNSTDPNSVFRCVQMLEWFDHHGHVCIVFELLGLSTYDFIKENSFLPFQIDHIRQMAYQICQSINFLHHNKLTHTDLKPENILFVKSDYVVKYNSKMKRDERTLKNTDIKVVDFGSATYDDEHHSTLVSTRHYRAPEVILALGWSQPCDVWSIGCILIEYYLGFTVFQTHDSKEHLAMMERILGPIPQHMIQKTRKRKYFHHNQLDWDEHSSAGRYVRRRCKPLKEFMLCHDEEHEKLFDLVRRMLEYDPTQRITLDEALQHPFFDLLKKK
Sequence of Casein kinase I isoform epsilon (P49674 whole entry, canonical isoform): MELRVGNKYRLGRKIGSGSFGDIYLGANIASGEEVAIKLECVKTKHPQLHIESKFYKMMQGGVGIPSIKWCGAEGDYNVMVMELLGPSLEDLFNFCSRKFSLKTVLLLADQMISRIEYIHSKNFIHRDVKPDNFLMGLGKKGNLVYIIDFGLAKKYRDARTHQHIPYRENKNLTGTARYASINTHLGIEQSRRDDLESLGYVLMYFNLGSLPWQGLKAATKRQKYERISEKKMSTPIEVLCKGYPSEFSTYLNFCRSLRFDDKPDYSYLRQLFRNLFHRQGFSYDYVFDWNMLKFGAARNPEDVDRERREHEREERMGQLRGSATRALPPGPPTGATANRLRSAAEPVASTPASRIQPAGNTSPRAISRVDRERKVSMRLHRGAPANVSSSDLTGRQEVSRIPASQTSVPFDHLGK
T3 sequence (P49759 whole entry): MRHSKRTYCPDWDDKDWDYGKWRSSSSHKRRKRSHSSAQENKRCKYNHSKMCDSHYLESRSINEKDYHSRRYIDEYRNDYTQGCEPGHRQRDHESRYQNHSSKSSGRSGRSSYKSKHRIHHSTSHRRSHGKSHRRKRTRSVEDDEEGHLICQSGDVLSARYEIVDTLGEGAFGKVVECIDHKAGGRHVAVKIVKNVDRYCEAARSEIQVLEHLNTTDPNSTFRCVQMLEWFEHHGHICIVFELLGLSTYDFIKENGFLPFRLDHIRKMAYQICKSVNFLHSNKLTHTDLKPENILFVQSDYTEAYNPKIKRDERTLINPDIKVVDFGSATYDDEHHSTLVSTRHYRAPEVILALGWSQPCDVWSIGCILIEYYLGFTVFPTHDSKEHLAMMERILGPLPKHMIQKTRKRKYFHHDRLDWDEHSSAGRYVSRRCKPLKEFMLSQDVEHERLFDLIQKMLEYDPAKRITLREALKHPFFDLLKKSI
T2 sequence (P49841 whole entry): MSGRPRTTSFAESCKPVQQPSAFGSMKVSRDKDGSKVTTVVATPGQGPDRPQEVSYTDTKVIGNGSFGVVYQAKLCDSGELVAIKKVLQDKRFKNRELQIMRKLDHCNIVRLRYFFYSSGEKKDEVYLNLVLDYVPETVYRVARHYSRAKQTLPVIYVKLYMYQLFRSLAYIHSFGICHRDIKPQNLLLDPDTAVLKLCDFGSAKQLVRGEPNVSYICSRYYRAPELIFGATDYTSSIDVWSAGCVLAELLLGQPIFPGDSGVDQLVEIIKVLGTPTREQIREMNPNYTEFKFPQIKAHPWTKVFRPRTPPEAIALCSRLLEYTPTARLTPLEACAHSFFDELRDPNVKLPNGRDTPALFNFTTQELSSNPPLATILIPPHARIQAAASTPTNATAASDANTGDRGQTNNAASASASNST
Sequence of Dual specificity protein kinase CLK3 (P49761 whole entry): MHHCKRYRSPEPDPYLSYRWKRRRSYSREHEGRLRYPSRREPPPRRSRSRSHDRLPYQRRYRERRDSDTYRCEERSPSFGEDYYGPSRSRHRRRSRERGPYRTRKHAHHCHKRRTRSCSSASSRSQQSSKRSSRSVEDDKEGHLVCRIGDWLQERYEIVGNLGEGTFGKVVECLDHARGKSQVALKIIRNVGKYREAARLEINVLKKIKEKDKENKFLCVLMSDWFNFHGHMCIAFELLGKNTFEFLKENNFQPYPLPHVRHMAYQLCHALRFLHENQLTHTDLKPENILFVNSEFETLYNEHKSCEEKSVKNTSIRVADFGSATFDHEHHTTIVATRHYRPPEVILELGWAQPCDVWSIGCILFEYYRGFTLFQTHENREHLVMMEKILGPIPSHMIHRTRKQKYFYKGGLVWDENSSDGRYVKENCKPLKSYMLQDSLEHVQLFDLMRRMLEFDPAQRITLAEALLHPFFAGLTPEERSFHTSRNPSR
Sequence of Dual specificity protein kinase CLK2 (P49760 whole entry): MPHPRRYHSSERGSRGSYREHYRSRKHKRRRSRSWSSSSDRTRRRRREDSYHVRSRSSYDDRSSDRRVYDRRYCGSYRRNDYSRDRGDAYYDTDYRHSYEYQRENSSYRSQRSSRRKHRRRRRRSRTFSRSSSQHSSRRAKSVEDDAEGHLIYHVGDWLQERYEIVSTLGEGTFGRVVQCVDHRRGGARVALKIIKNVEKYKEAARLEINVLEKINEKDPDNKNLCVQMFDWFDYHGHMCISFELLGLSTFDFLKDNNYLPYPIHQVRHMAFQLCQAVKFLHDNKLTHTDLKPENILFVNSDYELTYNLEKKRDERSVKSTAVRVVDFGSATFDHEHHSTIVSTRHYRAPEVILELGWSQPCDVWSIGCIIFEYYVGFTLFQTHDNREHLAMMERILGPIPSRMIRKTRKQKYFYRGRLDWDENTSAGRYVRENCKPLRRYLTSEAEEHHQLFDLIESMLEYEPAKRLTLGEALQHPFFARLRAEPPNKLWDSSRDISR

SMILES	pIC50 [1]	pIC50 [2]	pIC50 [3]	pIC50 [4]	pKd [5]	IC50 at 48 h (in vitro)	pIC50 [6]	pIC50 [7]	pIC50 [8]	pIC50 [9]	pIC50 [10]	pKd [11]	pIC50 [12]	pIC50 [13]
O=C1NC(Nc2ccccc2)=N/C1=C\c1ccc2c(c1)OCO2	< 5.00	5.66	6.09	< 5.00	6.25	> 100000 nM	7.67	–	–	–	–	–	–	–
c1ccc(CNc2nc(Nc3cc(C4CC4)[nH]n3)c3sccc3n2)cc1	5.08	5.72	< 5.00	–	–	54000 nM	–	7.12	5.33	5.37	7.25	7.99	7.08	–
COc1ccc(-n2c(C)c([N+](=O)[O-])c3ccc(O)cc32)cc1	< 5.00	–	–	–	–	> 100000 nM	–	–	–	< 5.00	–	–	–	< 5.00
COc1ccc(/C=C2\SC(=S)NC2=O)cc1C#C[Si](C)(C)C	< 5.00	5.14	< 5.00	< 5.00	–	64800 nM	< 5.00	5.08	< 5.00	< 5.00	–	–	5.08	< 5.00
CC(C)Oc1ccc(F)c(-c2cnc(N)c(C(=O)Nc3cnccc3N3CCC[C@@H](C(=O)O)C3)n2)c1	6.20	5.61	5.13	–	–	16300 nM	7.68	7.86	5.80	5.25	7.55	9.60	8.23	6.33
Cc1ccc(-n2cc(COc3cccc4cnc(Nc5cccc(Cl)c5)nc34)nn2)c([N+](=O)[O-])c1	< 5.00	–	< 5.00	< 5.00	< 5.00	100000 nM	–	–	–	< 5.00	–	–	–	< 5.00
CN1CCN(c2cc(C(=O)Nc3cc4cc(-c5cnn(C)c5)ccc4cn3)ccn2)CC1	5.52	–	–	–	–	180 nM	8.37	8.15	–	–	8.04	10.74	–	5.40
Cc1nc2ccc(-c3cc(N)nc(N)c3)nc2n1CC(F)(F)F	5.75	5.96	6.37	–	–	7700 nM	7.79	–	8.06	< 5.00	–	–	7.61	6.38
O=C1NC(NC23CC4CC(CC(C4)C2)C3)=N/C1=C\c1ccc2ncsc2c1	< 5.00	6.09	6.93	5.38	5.75	6300 nM	–	–	–	–	–	–	–	6.61
COc1ccc2nc3ccc(OC)cc3c(SCCCN)c2c1	< 5.00	5.13	6.23	< 5.00	5.57	14500 nM	6.34	–	–	–	–	–	5.57	< 5.00
O=C(Nc1ccc2[nH]ncc2c1)c1csc(Nc2ccccc2)n1	< 5.00	< 5.00	< 5.00	–	–	> 100000 nM	6.91	7.05	6.36	5.26	6.30	6.70	7.09	< 5.00
Cn1cc(-c2ccc3cnc(NC(=O)C4CCN(S(C)(=O)=O)CC4)cc3c2)cn1	< 5.00	6.17	6.21	–	–	5900 nM	7.85	7.42	7.43	6.68	7.69	9.21	7.05	5.75
COc1ccc2nc3c(CO)cc(OC)cc3c(SC[C@H]3CCNC3)c2c1	< 5.00	5.19	5.71	< 5.00	–	14700 nM	6.27	5.90	–	–	–	–	5.37	< 5.00
COc1ccc2sc(-c3cncc(NC(C)=O)c3)nc2c1	< 5.00	< 5.00	< 5.00	< 5.00	–	100000 nM	6.47	6.24	5.84	< 5.00	6.41	–	5.36	< 5.00
CC(C)CN1CCC(C(=O)Nc2cc3cc(-c4cnn(C)c4)ccc3cn2)CC1	< 5.00	5.67	5.61	–	–	4900 nM	7.62	7.08	6.67	6.17	7.82	9.01	6.42	5.99
CCN1CCN(Cc2ccc(Nc3ncc(F)c(-c4cc(F)c5nc(C)n(C(C)C)c5c4)n3)nc2)CC1 [ABEMACICLIB]	< 5.00	5.13	5.45	–	–	12200 nM	7.05	7.19	–	7.69	7.09	9.07	6.73	–
c1cc(OCCN2CCCCC2)cc(-c2n[nH]c3ccc(-c4nc[nH]n4)cc23)c1 [CC-401]	5.82	< 5.00	< 5.00	–	–	51700 nM	6.81	6.36	5.10	5.37	5.54	8.22	6.39	< 5.00
[H]/N=C(\N/C(=N/[H])NCCCCCCNC(=N)NC(=N)Nc1ccc(Cl)cc1)Nc1ccc(Cl)cc1 [CHLORHEXIDINE]	–	–	–	–	–	5600 nM	–	–	–	–	–	–	5.04	–
COc1ccc2c(c1)[nH]c1c(C)nccc12 [HARMINE]	–	5.05	5.08	–	–	56500 nM	6.99	–	5.50	5.54	–	–	5.94	–
CNCc1ccc(-c2[nH]c3cc(F)cc4c3c2CCNC4=O)cc1 [RUCAPARIB]	< 5.00	< 5.00	< 5.00	–	–	57000 nM	< 5.00	< 5.00	< 5.00	5.10	–	–	< 5.00	–
O=C(O)c1ccc2c(c1)nc(Nc1cccc(Cl)c1)c1ccncc12 [SILMITASERTIB]	< 5.00	7.11	5.82	–	–	21300 nM	8.59	–	7.00	7.51	–	–	–	< 5.00
